Source: patent US6458837B1, “Lipophilic diesters of chelating agents” (D-Pharm Ltd., priority 1997, dated 2002)
Marks after values point to notes of the source that are not given here.

Key:
[1] = Octanol-saline partition coefficient (lipophilicity); format: physicochemical; conditions: for LogPc, octanol-saline partition coefficient, M = Ca++: calcium salt (BAPTA: dicalcium salt); for LogPc, octanol-saline partition coefficient, M = Ca++ / LogPc, octanol-saline partition coefficient, M = Na+: octanol/physiological saline, 26° C.; for LogPc, octanol-saline partition coefficient, M = Na+: sodium salt (BAPTA: tetrasodium salt)
Method: The lipophilicity values of several BAPTA diesters salts of the invention were studied by comparing the solubility of these compounds in organic versus aqueous solutions. Octanol and physiological saline were used, respectively, as the organic and aqueous solutions. The partition coefficient (Pc), i.e the distribution ratio between the organic and the aqueous phases were determined for several specific BAPTA diesters salts of the general formula I: [drawing 6]

[2] = Water/octanol distribution of Fe++ ions; format: physicochemical; conditions: 15 ml octanol / 15 ml saline pH 6.5; FeCl2 2×10^−3 M/L
Method: (§1) The hydrophilic/hydrophobic system used in this set of experiments consisted of 15 ml octanol and 15 ml saline pH=6.5. DP-BAPTA 99 was dissolved in the octanol solution before this phase was mixed with the saline. The DP-BAPTA concentration in the different experiments varied from 2.1×10^−6 to 5.5×10^−4 M/L in the experiments with Ca^2+ and from 5.4×10^−6 to 1.4×10^−3 M/L in the experiments with either Zn^2+ or Fe^2+, as indicated for each point in FIGS. 1A-C. The corresponding metal ions were added in the aqueous solution as chlorides at the following concentrations: FeCl2 2×10^−3 M/L, ZnCl2 10^−4 M/L, CaCl2 2×10^−3 M/L.
(§2) The octanol and buffer phases were mixed and vortexed for 1 hr at room temperature, followed by centrifugation at 4000 rpm, 10 min in order to separate the mixture to the two phases.
(§3) Different analytical procedures were employed for water and octanol samples: i) Water samples were analyzed versus ICP standards from Merk. Ca and Zn were determined in tested solutions by inductively coupled plasma atomic emission spectrometry. An ICP-AES, model “Spectroflame Modula E” from Spectro, Kleve, Germany was used, with a standard cross flow nebulizer and fixed EOP torch. The power level was 1.2 kW, coolant flow—15 l/min, auxilliary flow 0.5 l/min and nebulizer flow—0.5 l/min. ii) Octanol samples, 2-ml each, in a glass tube, were transferred to a heating block. […]

Mongolian gerbils [3] = assay: Global forebrain ischemia, animal survival; format: in vivo; conditions: 10 μg/kg i.p. single dose at onset of reperfusion; 20 min ischemia
Method: (§4) Animal. Male Mongolian gerbils 60-70 g (Charles River Laboratories, USA) were used for the study.
(§5) Induction of ischemia. Anesthesia was induced in gerbils with halothane (4%) in an anesthesia chamber (30% oxygen, 70% nitrous oxide) and was maintained with 1% halohtane in 30% oxygen and 70% nitrous oxide using face masks. For ischemia induction, both common carotid arteries were isolated via a neck midline incision and temporarily occluded for 10 or 20 min, as indicated, using arterial clips. During the entire period of cerebral ischemia, when the clips were in place, anesthesia was maintained only with 30% oxygen and 70% nitrous oxide, without halothane. Rectal temperature, monitored with a rectal probe, was maintained throughout ischemia at 37-37.5° C. by using a warming lamp and heating pad. Whenever applied, the tested BAPTA diesters were administered to the animals either parenterally via i.p. or orally, at the times and dosages as indicated in each particular experiment. Control animals were treated with the vehicle alone, i.e with 0.9% NaCl solution instead of the PABTA diester compound.

[4] = tested on: cultured hippocampal neurons; conditions: 0.1, 1.0 or 10.0 μg/ml perfused 5 minutes; 40 millisecond K+ pulses
Mongolian gerbils [5] = conditions: 5 μg/kg i.p. single dose immediately after 10 minutes ischemia; three days after ischemia
Mongolian gerbils [6] = conditions: for neuroprotective activity, sodium salt compared with calcium salt: global forebrain ischemia model; for neuronal damage (serum NSE activity 24 hours after ischemia): single dose 5μg/kg i.p. at onset of reperfusion (t=0) or 3 hours after (t=3), 10 min ischemia
Method: as §4, §5
Statistics. Statistical analysis was carried out using the Student's t-test with Bonferroni corrections and p<0.05 as the level of significance.
Neuronal-specific enolase (NSE) assay. Blood samples were taken from the orbital sinus of gerbils 24 and 72 hours after 10 min period of cerebral ischemia. Blood samples were centrifuged for 5 min at 3000 rpm to obtain serum (the supernatant fraction). NSE activity in the serum was determined by radioimmunoassay using NSE kit (Pharmatope Ltd.,Israel).
The enzymatic activity of neuronal-specific enolase (NSE ) in the serum was used for evaluating the efficacy of the tested BAPTA-diesters in preventing neuronal damage. […] Thus, NSE may serve as a quantitative marker for the degree of neuronal damage.

Wistar rats = assay: Pilocarpine-induced epilepsy; conditions: i.p. one hour before pilocarpine 400 mg/kg
[7] = Water/octanol distribution of Zn++ ions; format: physicochemical; conditions: 15 ml octanol / 15 ml saline pH 6.5; ZnCl2 10^−4 M/L
Method: as §1, §2, §3

[8] = Water/octanol distribution of Ca++ ions; format: physicochemical; conditions: 15 ml octanol / 15 ml saline pH 6.5; CaCl2 2×10^−3 M/L
Method: as §1, §2, §3

Na/K-ATPase = Na/K-ATPase activity in mouse brain cortex homogenate; format: biochemical; conditions: 10^−7 to 10^2 μg/ml; mouse cerebral cortex homogenate
Method: Thus, the effects of BAPTA-diesters on Na/K-ATPase activity were examined in mouse brain homogenates treated with different concentrations of diethyl-BAPTA (DP-BAPTA 27, disodium salt). The BAPTA-diester tested concentrations ranged from 10^−7 to 10^2 μg/ml.
Preparation of mouse brain homoganate. Male CD-1 mice (10 to 21 days of age) were sacrificed by rapid decapitation. The skull was opened, the brains removed and cut into two. The cortex was isolated, put into sodium Ringer's buffer, washed three times with ice cold PBS and kept on ice. The brain tissue was homogenized using a Polytron at 14000 rpm for 4×30 seconds, on ice. The homogenization buffer contained: 250 mM Sucrose; 1 mM EGTA; 20 mM HEPES-Tris, pH 7.4, and the protease inhibitor PMSF.
The homogenate was span down in a Sorval refrigerated centrifuge at 27000 g for 30 minutes. The membrane fraction was collected and re-suspended in the homogenization buffer. […]
Na/K-ATPase assay. Na/K ATPase was measured as described before (Norby J, G. Coupled (1988) Assay of the Na^+—K^+ ATPase Activity. Methods in Enzymology. 156: 116-119) in the absence and presence of the Na/K-ATPase inhibitor, ouabain (3 mM). The Protein content was determined using the Bio Rad-Bradford assay as previously described (Bradford, M. (1978) Protein assay. Ann. Biochem. 72: 248-257.).

[9] = tested on: cultured neuronal cells of rat hippocampus; assay: Intracellular Ca++ concentration, Fluo-3/AM fluorescence; format: cell-based; conditions: 1 mM in 9 sec. pulse applied onto cultured hippocampal neurons

CCCCCCCCOCCOC(=O)CN(CC(=O)O)c1ccccc1OCCOc1ccccc1N(CC(=O)O)CC(=O)OCCOCCCCCCCC [DP-BAPTA-99, BAPTA diester of octylethylene glycol]
LogPc, octanol-saline partition coefficient, M = Ca++ [1]: 1.10 | lipophilicity relative to the sodium salt of the parent molecule BAPTA ([1]; octanol versus aqueous phase): 10,000 fold | LogPc, octanol-saline partition coefficient, M = Na+ [1]: 0.80 | drug concentration at which transfer of Fe++ ions from water to octanol is evident [2]: 250 to 500 µM | extension of survival time (Mongolian gerbils [3]): 3 fold | effect on potassium-induced increase in intracellular calcium ion concentration [4]: attenuates potassium-induced increase in intracellular calcium ion concentration | ischemia-induced neuronal damage in CA-2, CA-3 and dentate gyrus regions of the hippocampus (Mongolian gerbils [5]): significant neuroprotective effect | neuroprotective activity, sodium salt compared with calcium salt (Mongolian gerbils [6]): much pronounced neuroprotective activity comparing to the calcium salt | serum NSE activity 24 h and 72 h after global cerebral ischemia (Mongolian gerbils [6]; oral, 0.5 mg/kg 4 hours before and at onset of reperfusion, or 0.5 mg/kg daily for 3 days after ischemia): significant reduction in NSE activity | neuronal damage (serum NSE activity 24 hours after ischemia) (Mongolian gerbils [6]): prevented neuronal damage | effect on generalized seizures (Wistar rats): capable of preventing generalized seizures | effect on limbic seizures (Wistar rats): no effect | effect on mortality during the 3 hour period of status epilepticus (Wistar rats): reduces mortality | prevention of status epilepticus (Wistar rats): about half of the population | drug concentration at which transfer of Zn++ ions from water to octanol is evident [7]: 10 µM | drug concentration at which transfer of Ca++ ions from water to octanol is evident [8]: 250 to 500 µM

CCCCCCCCOC(=O)CN(CC(=O)O)c1ccccc1OCCOc1ccccc1N(CC(=O)O)CC(=O)OCCCCCCCC [DP-BAPTA-60, Octyl diester of BAPTA]
LogPc, octanol-saline partition coefficient, M = Ca++ [1]: 0.79 | LogPc, octanol-saline partition coefficient, M = Na+ [1]: 0.85 | extension of survival time (Mongolian gerbils [3]): 2 fold | ischemia-induced neuronal damage in CA-2, CA-3 and dentate gyrus regions of the hippocampus (Mongolian gerbils [5]): effective in decreasing the ischemia-induced neuronal damage in the same regions, albeit to a lesser extent than DP-BAPTA 99 | neuroprotective activity, sodium salt compared with calcium salt (Mongolian gerbils [6]): equally effective | neuronal damage (serum NSE activity 24 hours after ischemia) (Mongolian gerbils [6]): prevented neuronal damage

CCOC(=O)CN(CC(=O)O)c1ccccc1OCCOc1ccccc1N(CC(=O)O)CC(=O)OCC [DP-BAPTA 27, diethyl-BAPTA]
effect on Na/K-ATPase activity (Na/K-ATPase): dose dependent increase in Na/K-ATPase activity

O=C(O)CN(CC(=O)O)c1ccccc1OCCOc1ccccc1N(CC(=O)O)CC(=O)O [BAPTA, 1,2-bis(2 aminophenoxy)ethane-N,N,N′,N′-tetraacetic acid, reference compound]
LogPc, octanol-saline partition coefficient, M = Ca++ [1]: −1.71^d) | LogPc, octanol-saline partition coefficient, M = Na+ [1]: −3.3^c) | effect on intracellular calcium levels (Fluo-3 fluorescence) [9]: only insignificant increase in intracellular Ca^2+ | drug concentration at which transfer of Ca++ ions from water to octanol is evident [8]: does not
